# Assays:
# α1-GABAA receptor = assay: Ligand-binding assay, competitive with radiolabeled flumazenil, cerebellum membranes; conditions: Affinity for α1-GABAA receptor, rat cerebellum membranes, radiolabeled flumazenil 1 nM; for % Inhibition 10^−5M: 10^-5M test compound; for % Inhibition 10^−7M: 10^-7M test compound
# Experimental: (§1) Ligand-binding assays. Determination of the affinity of test compounds for α1- and α2-GABAA receptor.
# (§2) Male Sprague-Dawley rats weighing 200-250 g at the time of experiment were used. After decapitation of the animal, the cerebellum (tissue that mostly contains α1-GABAA receptor) and spinal cord (tissue that mostly contains α2-GABAA receptor) were removed. The membranes were prepared according to the method by J. Lameh et al. (Prog. Neuro-Psychopharmacol. Biol. Psychiatry, 24, 979-991, 2000) and H. Noguchi et al. (Eur. J. Pharm., 434, 21-28, 2002). Once the tissues weighed, they were suspended in 50 mM Tris.HCl (pH 7.4), 1:40 (w/v), or sucrose 0.32 M in the case of spinal cord, homogenized and then centrifuged at 20,000 g for 10 min at 7° C. twice. The resulting pellet was resuspended under the same conditions and centrifuged again. The pellet was finally resuspended on a minimum volume and kept at −80° C. overnight. On the next day, the process was repeated until the final pellet was resuspended at a ratio of 1:10 (w/v) in the case of cerebellum and at a ratio of 1:5 (w/v) in the case of spinal cord.
# (§3) Affinity was determined by competitive tests using radiolabeled flumazenil as ligand. The tests were performed according to the methods described by S. Arbilla et al. (Eur. J. Pharmacol., 130, 257-263, 1986); and Y. Wu et al. (Eur. J. Pharmacol., 278, 125-132, 1995) using 96-well microtiter plates. The membranes containing the study receptors, flumazenil (radiolabeling at a final concentration of 1 nM) and ascending concentrations of test compounds (in a total volume of 230 μL in 50 mM [ph 7.4] Tris.HCl buffer) were incubated. Simultaneously, the membranes were only incubated with the radiolabeled flumazenil (total binding, 100%) and in the presence of an elevated concentration of unradiolabeled flumazenil (non-specific binding, % estimation of radiolabeled ligand). The reactions started on adding the radiolabeled ligand followed by incubation for 60 minutes at 4° C. At the end of the incubation period, 200 μL of reaction were transferred to a multiscreen plate (Millipore) and filtered using a vacuum manifold and then washed three times with cold test buffer. The multiscreen plates were equipped with a GF/B filter that retained the membranes containing the receptors and the radiolabeled ligand which has been bound to the receptors. After washing, the plates were left till dry. Once dried, scintillation liquid was added and left under stirring overnight. The next day the plates were counted using a Perkin-Elmer Microbeta scintillation counter.
# (§4) For analysis of the results the percentage of specific binding for every concentration of test compound was calculated as follows:
# (§5) % specific binding=(X−N/T−N)×100
# (§6) where, X: amount of bound ligand for every concentration of compound. T: total binding, maximum amount bound to the radiolabeled ligand. N: non-specific binding, amount of radiolabeled ligand bound in a non-specific way irrespective of the receptor used.
# (§7) Every concentrations of compound were tested in triplicate and their mean values were used to determine the experimental values of % specific binding versus the concentration of compound. Affinity data are expressed as % inhibition at 10^-5M and 10^-7M concentrations.
# α2-GABAA receptor = assay: Ligand-binding assay, competitive with radiolabeled flumazenil, spinal cord membranes; conditions: Affinity for α2-GABAA receptor, rat spinal cord membranes, radiolabeled flumazenil 1 nM; for % Inhibition 10^−5M: 10^-5M test compound; for % Inhibition 10^−7M: 10^-7M test compound
# Experimental: as §1, §2, §3, §4, §5, §6, §7
# mice = assay: In vivo predictive sedation-hypnosis test (inhibition of traveled distance); design: species or system mouse; conditions: male CD1 mice; single equimolecular intraperitoneal doses; traveled distance over 30 min after dosing (first 5 min discarded) versus control
# Experimental: In vivo determination of predictive sedative-hypnotic action.
# The in vivo effects of these compounds were assessed by a predictive sedation-hypnosis test in mice (D. J. Sanger et al., Eur. J. Pharmacol., 313, 35-42, 1996; and G. Griebel et al., Psychopharmacology, 146, 205-213, 1999).
# Groups of 5-8 male CD1 mice, weighing 22-26 g at the time of test, were used. The test compounds were administered in single equimolecular intraperitoneal doses, suspended in 0.25% agar with one drop of Tween in a volume of 10 mL/kg. Control animals received the vehicle alone. Using a Smart System (Panlab, S. L., Spain) the traveled distance in cm is recorded for each mouse at 5-min intervals during a period of 30 minutes after dosing. The inhibition percentage of traveled distance of treated animals versus control animals (the first 5 min were discarded) was calculated.
Compound,% Inhibition 10^−5M (α1-GABAA receptor) [%],% Inhibition 10^−7M (α1-GABAA receptor) [%],% Inhibition 10^−5M (α2-GABAA receptor) [%],% Inhibition 10^−7M (α2-GABAA receptor) [%],% Inhibition Motor Activity (mice) [%]
"Cc1ccc(-c2nc3ccc(C)cn3c2CNC(=O)c2ccc3ccccc3n2)cc1 [Example 19, Quinoline-2-carboxylic acid (6-methyl-2-p-tolyl-imidazo[1,2-a]pyridin-3-ylmethyl)-amide]",95.5,0.0,47.6,0.0,47.98
"Cc1ccc(-c2nc3ccc(C)cn3c2CNC(=O)c2ncc(F)cc2F)cc1 [Example 20, 3,5-Difluoro-pyridine-2-carboxylic acid (6-methyl-2-p-tolyl-imidazo[1,2-a]pyridin-3-ylmethyl)-amide]",99.8,65.9,95.2,0.0,91.99
"COc1ccc2nc(C(=O)NCc3c(-c4ccc(C)cc4)nc4ccc(C)cn34)sc2c1 [Example 21, 6-Methoxy-benzothiazole-2-carboxylic acid (6-methyl-2-p-tolyl-imidazo[1,2-a]pyridin-3-ylmethyl)-amide]",67.9,3.5,25.6,0.0,57.14
"Cc1ccc(-c2nc3ccc(C)cn3c2CN(C)C(=O)c2ccc(N(C)C)cc2)cc1 [Example 22, 4-Dimethylamino-N-methyl-N-(6-methyl-2-p-tolyl-imidazo[1,2-a]pyridin-3-ylmethyl)-benzamide]",84.8,62.3,9.4,0.0,89.45
"Cc1ccc(-c2nc3ccc(C)cn3c2CN(C)C(=O)C2CC2)cc1 [Example 24, Cyclopropanecarboxylic acid methyl-(6-methyl-2-p-tolyl-imidazo[1,2-a]pyridin-3-ylmethyl)-amide]",99.8,75.2,14.4,0.0,80.71
"COc1ccc(C(=O)N(C)Cc2c(-c3ccc(C)cc3)nc3ccc(C)cn23)cc1 [Example 25, 4-Methoxy-N-methyl-N-(6-methyl-2-p-tolyl-imidazo[1,2-a]pyridin-3-ylmethyl)-benzamide]",91.9,26.6,0.0,0.0,67.34
"Cc1ccc(-c2nc3ccc(C)cn3c2CN(C)C(=O)c2ccccn2)cc1 [Example 28, Pyridine-2-carboxylic acid methyl-(6-methyl-2-p-tolyl-imidazo[1,2-a]pyridin-3-ylmethyl)-amide]",99.8,73.3,93.9,14.3,55.64
"Cc1ccc(-c2nc3ccc(C)cn3c2CN(C)C(=O)c2cccs2)cc1 [Example 29, Thiophene-2-carboxylic acid methyl-(6-methyl-2-p-tolyl-imidazo[1,2-a]pyridin-3-ylmethyl)-amide]",99.7,84.9,90.2,25.0,93.98
"Cc1ccc(C(=O)N(C)Cc2c(-c3ccc(C)cc3)nc3ccc(C)cn23)cc1 [Example 30, 4,N-Dimethyl-N-(6-methyl-2-p-tolyl-imidazo[1,2-a]pyridin-3-ylmethyl)-benzamide]",90.5,4.6,33.9,0.0,44.36
"Cc1ccc(-c2nc3ccc(C)cn3c2CN(C)C(=O)c2ccc([N+](=O)[O-])cc2)cc1 [Example 31, N-Methyl-N-(6-methyl-2-p-tolyl-imidazo[1,2-a]pyridin-3-ylmethyl)-4-nitro-benzamide]",82.5,1.2,38.8,0.0,69.67
